Source: patent US11897931B2, “MANP analogues” (Mayo Foundation for Medical Education and Research, priority 2016, dated 2024)
Read-outs that look alike come from different tables or passages of the source. Bridges are numbered along the chain shown (N, C = ends). Where no end group is shown, it is not given here. [ ]: non-standard residue; d: D form.

Experiments:
[1] = target: T1, pGC-A (Homo sapiens, UniProt P16066); experiment: cGMP generation in HEK293 cells overexpressing pGC-A; type: cell-based
T1 construct: host or cells: HEK293
T1 sequence (P16066 33-1061): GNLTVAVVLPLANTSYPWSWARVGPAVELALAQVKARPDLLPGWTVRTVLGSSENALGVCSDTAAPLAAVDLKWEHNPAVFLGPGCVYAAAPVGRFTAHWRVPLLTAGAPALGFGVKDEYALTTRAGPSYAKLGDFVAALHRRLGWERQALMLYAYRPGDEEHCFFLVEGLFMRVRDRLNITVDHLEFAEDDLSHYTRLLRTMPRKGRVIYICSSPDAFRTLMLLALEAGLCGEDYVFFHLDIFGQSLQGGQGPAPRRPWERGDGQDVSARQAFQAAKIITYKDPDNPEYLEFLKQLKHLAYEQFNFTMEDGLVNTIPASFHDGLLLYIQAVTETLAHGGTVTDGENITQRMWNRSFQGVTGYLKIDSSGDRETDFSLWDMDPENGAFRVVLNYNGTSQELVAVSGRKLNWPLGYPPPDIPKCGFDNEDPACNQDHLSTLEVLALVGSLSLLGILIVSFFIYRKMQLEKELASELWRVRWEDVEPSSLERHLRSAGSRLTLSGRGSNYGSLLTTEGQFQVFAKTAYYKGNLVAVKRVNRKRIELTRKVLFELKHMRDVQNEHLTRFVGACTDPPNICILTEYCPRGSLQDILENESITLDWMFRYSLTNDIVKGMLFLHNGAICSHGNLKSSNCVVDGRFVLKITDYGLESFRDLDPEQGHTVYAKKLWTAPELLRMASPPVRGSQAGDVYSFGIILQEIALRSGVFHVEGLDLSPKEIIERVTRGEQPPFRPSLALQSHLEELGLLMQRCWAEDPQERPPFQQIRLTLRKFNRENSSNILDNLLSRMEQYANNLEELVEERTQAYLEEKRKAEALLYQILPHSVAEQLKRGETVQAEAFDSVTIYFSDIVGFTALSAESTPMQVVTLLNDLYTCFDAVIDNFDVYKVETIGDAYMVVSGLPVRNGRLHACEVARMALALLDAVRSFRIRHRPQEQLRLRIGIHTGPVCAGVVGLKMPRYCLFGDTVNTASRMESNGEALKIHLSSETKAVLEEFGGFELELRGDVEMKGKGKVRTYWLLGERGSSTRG
Procedure: For in vitro studies, five MANP variants were generated that contained substitutions within the N-terminal region. HEK293 cells overexpressing pGC-A were stimulated with MANP or the five variants (10^−8 M), and intracellular cGMP generation was measured.
(§1) Additional in vitro experiments were conducted using an MANP variant having a tryptophan substitution for the leucine at position 2 of MANP (SWLRRSSCFGGRMDRI GAQSGLGCNSFRYRITA REDKQGWA; SEQ ID NO:15). Human pGC-A and pGC-B cDNA clones were purchased from Origene (Rockville, Md.). HEK293 cells were stably transfected with pGC-A or pGC-B cDNA using LIPOFECTAMINE® (Invitrogen; Grand Island, N.Y.). Transfected cells were maintained in Dulbecco's modified Eagle's medium supplemented with 10% fetal bovine serum, 100 U/ml penicillin, 100 […], and 250 ug/ml G418, and were plated in 6-well plates. pGC-A-transfected cells were treated with MANP or MANP2W, while pGC-B-transfected cells were treated with CNP or MANP2W. Cells were incubated in Hank's balanced salt solution (Invitrogen; Carlsbad, Calif.) containing 20 mmol/LN42-hydroxyethyllpiperazine-N′[2-ethanesulfonic acid], 0.1% bovine serum albumin, and 0.5 mmol/L 3-isobutyl-1-methylzanthine (Sigma; St. Louis, Mo.). Treated cells received 10^−6 M, 10^−8 M, or 10^−10 M of MANP, CNP, or MANP2W peptide for 10 minutes. […]

[2] = target: T2, pGC-B (Homo sapiens, UniProt P20594); experiment: cGMP generation in HEK293 cells overexpressing pGC-B; type: cell-based; settings: 10^−6 M, 10^−8 M, or 10^−10 M peptide for 10 minutes, FIG. 7B
T2 construct: host or cells: HEK293
T2 sequence (P20594 23-1047): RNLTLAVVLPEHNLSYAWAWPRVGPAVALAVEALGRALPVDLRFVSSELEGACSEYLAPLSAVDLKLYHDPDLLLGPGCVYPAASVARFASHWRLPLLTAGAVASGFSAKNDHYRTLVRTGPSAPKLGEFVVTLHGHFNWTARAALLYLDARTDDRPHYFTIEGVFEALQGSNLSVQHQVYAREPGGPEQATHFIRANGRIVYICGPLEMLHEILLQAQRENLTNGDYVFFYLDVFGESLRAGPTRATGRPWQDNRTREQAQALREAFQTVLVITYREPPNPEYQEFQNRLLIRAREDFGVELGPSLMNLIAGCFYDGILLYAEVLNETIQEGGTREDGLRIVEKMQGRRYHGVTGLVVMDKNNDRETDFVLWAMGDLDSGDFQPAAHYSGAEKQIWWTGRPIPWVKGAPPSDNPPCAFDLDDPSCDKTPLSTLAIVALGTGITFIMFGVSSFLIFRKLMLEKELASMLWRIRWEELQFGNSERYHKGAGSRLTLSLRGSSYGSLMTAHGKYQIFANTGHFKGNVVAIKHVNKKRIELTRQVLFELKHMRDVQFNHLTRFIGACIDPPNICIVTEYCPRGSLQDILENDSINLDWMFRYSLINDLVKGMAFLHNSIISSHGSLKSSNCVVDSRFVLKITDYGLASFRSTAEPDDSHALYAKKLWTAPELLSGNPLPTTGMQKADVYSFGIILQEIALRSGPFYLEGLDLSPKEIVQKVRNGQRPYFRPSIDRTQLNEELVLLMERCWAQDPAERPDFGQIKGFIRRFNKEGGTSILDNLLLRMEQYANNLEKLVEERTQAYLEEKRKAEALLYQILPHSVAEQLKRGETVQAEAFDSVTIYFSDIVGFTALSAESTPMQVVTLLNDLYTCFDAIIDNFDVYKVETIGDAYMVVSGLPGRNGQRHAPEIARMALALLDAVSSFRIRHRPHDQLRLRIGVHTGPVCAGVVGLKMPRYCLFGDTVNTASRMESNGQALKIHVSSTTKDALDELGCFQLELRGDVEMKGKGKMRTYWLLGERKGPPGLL
Procedure: as §1, with “minutes. After treatment, the cells were lysed in 300 ul 6% ice cold TCA and sonicated for 10 minutes, and the cell lysates were then centrifuged at 4° C., 12,000 g for 10 minutes.” for “minutes.”

[3] = tested on: normal canine; experiment: In vivo MANP18 infusion study in a normal canine; settings: normal dog
Procedure: FIGS. 5A-5G are graphs plotting the effect of MANP18 on mean arterial pressure (MAP; FIG. 5A), heart rate (FIG. 5B), pulmonary wedge capillary pressure (PWCP; FIG. 5C), cardiac output (FIG. 5D), renal blood flow (FIG. 5E), urine output (UV; FIG. 5F), and urinary sodium excretion (UNaV; FIG. 5G) in a normal dog. After a baseline (BL) clearance, MANP18 was infused with saline for a total of 45 minutes, which included a 15-minute lead-in period followed by a 30-minute clearance. After the peptide infusion was discontinued, and four, 30-minute clearances were performed [washout (Wo), recovery 1 (Rec1), recovery 2 (Rec2), and recovery 3 (Rec3)].
FIGS. 6A-6G are graphs plotting the effect of MANP18 on plasma cGMP levels (FIG. 6A), urinary cGMP excretion (FIG. 6B), plasma ANP levels (FIG. 6C), urinary ANP excretion (FIG. 6D), plasma aldosterone levels (FIG. 6E), plasma renin activity (PRA; FIG. 6F), and plasma angiotensin II levels (ANGII; FIG. 6G) in a normal dog. Experiments were conducted as described for FIGS. 5A-5G).
In vivo infusion studies were conducted using MANP18 in a normal canine. The night before the study, the dog was fasted. On the day of the experiment, the dog was anesthetized with pentobarbital sodium (15 mg/kg IV), intubated, and mechanically ventilated with supplemental oxygen (Harvard Respirator; Amersham, Mass.) at 12 cycles/minute. The femoral artery was cannulated for MAP monitoring and blood sampling, and the femoral vein was cannulated for saline infusion. Through a left lateral flank incision, the left kidney was exposed and the ureter was cannulated for urine sampling. Supplemental nonhypotensive doses of pentobarbital were administered as needed during the study. After 60 minutes of equilibrium, a baseline clearance was performed. All clearances consisted of urine collection over 30 minutes. Arterial blood sampling and hemodynamic measurements were measured midway through each clearance. After the baseline clearance, MANP18 was infused with saline at a dose of 33 pmol peptide/kg/min. The peptide was infused for a total of 45 minutes, which included a 15-minute lead-in period followed by a 30-minute clearance. The peptide infusion was then discontinued, and four 30-minute clearances were performed (washout, recovery 1, recovery 2, and recovery 3).

[4] = tested on: normal dogs; settings: cited from earlier work
[5] = tested on: Spontaneously hypertensive rats (SHRs); experiment: Acute IV MANP in spontaneously hypertensive rats: BP, plasma and urinary cGMP, natriuresis; type: in vivo, rat; settings: acute IV administration
Procedure: FIGS. 2A-2E are a series of graphs plotting the effect of MANP, administered intravenously at the indicated doses, on mean arterial pressure (FIG. 2A), cGMP levels in plasma (FIG. 2B) and urine (FIG. 2C), distal tubule sodium reabsorption (FIG. 2D), and urinary sodium excretion (FIG. 2E) in spontaneously hypertensive rats.
Spontaneously hypertensive rats (SHRs) were injected with intravenous (IV) MANP or vehicle, and BP, plasma and urinary cGMP, and natriuretic effects were determined.

[6] = infusion of a high dose, compared to high dose of ANP

Substance: SWLRRSSCFGGRMDRI GAQSGLGCNSFRYRITA REDKQGWA (SWLRRSSCFGGRMDRIGAQSGLGCNSFRYRITAREDKQGWA) [MANP2W, MANP variant having a tryptophan substitution for the leucine at position 2 of MANP]
- pGC-A activation (cGMP generation) ([1]; 10^−6 M, 10^−8 M, or 10^−10 M peptide for 10 minutes, FIG. 7A): selectively activated pGC-A
- pGC-B activation (cGMP generation) [2]: did not activate pGC-B

Substance: SLRRSSDformCFGGRMDRIGAQSGLGCNSFRYRITAREDKQGWA (SLRRS[dS]CFGGRMDRIGAQSGLGCNSFRYRITAREDKQGWA; disulfide 7-23 (inferred)) [MANP18, MANP with D-serine at the sixth position]
- Potency vs. MANP ([1]; intracellular cGMP generation, peptide 10^−8 M, HEK293 overexpressing pGC-A): =
- blood pressure (mean arterial pressure) ([3]; 33 pmol peptide/kg/min infused 45 minutes, FIG. 5A): blood pressure lowering
- cardiac output ([3]; 33 pmol peptide/kg/min infused 45 minutes, FIG. 5D): cardiac output enhancing
- natriuretic action (urinary sodium excretion) ([3]; 33 pmol peptide/kg/min infused 45 minutes, FIG. 5G): natriuretic actions
- plasma aldosterone levels ([3]; 33 pmol peptide/kg/min, FIG. 6E): temporarily depressed
- plasma renin activity (PRA) ([3]; 33 pmol peptide/kg/min, FIG. 6F): temporarily depressed
- plasma angiotensin II levels (ANGII) ([3]; 33 pmol peptide/kg/min, FIG. 6G): temporarily depressed
- cGMP (plasma cGMP levels, urinary cGMP excretion) ([3]; 33 pmol peptide/kg/min, FIGS. 6A and 6B): activated cGMP
- ANP levels (plasma ANP, urinary ANP excretion) ([3]; 33 pmol peptide/kg/min, FIGS. 6C and 6D): temporarily increased

Substance: SLRRSSCFGGRMDRIGAQSGLGCNSFRY (listed as Homo sapiens) [ANP, endogenous human mature atrial natriuretic peptide]
- glomerular filtration rate (GFR) ([4]; infusion of a low dose): No change
- mean arterial pressure (MAP) ([4]; infusion of a low dose): No change

Substance: SLRRSSCFGGRMDRIGAQSGLGCNSFRYRITAREDKQGWA (listed as Homo sapiens) [MANP]
- diuretic and natriuretic effects compared with ANP [4]: greater diuretic and natriuretic effects than ANP
- glomerular filtration rate (GFR) [4, 6]: increased GFR
- mean arterial pressure (MAP) [4, 6]: decreased MAP
- glomerular filtration rate (GFR) ([4]; infusion of a low dose): No change
- mean arterial pressure (MAP) ([4]; infusion of a low dose): No change
- effect on renal blood flow compared with ANP ([4]; low dose): greater effect than low dose ANP
- BP (mean arterial pressure) ([5]; FIG. 2A): reduced BP
- plasma cGMP generation ([5]; FIG. 2B): increased
- urinary cGMP generation ([5]; FIG. 2C): increased
- natriuresis (distal tubule sodium reabsorption, urinary sodium excretion) ([5]; FIGS. 2D and 2E): induced natriuresis
